Measured values published in patent US20080113899A1, “Iron Supplement and Utilization of the Same” (GEKKEIKAN SAKE CO., LTD., priority 2004, published 2008).
Like-named read-outs stand apart in the source and are kept apart here. Marks after values point to notes of the source that are not given here. Non-standard residues stand in square brackets, D forms with d. Residues, ends and D or L forms follow the SMILES beside them. ξ: configuration not given here. ξOrn(N(OH)Ac) = CC(=O)N(O)CCCC(N)C(=O)O

Columns and labels:
[1] = system: SD male rats having iron deficiency anemia; test: Measurement of hemoglobin concentration in the blood; type: in vivo, rat; conditions: mean±SD of five rats
Excerpt: The rats in the control group were fed iron-containing food 1 (ferric citrate) during the study.

[2] = system: SD male rats having iron deficiency anemia; conditions: rat, in vivo
Excerpt: Fifteen four-week-old SD male rats were freely fed an iron-deficient food for 35 days to develop iron deficiency anemia with the average blood hemoglobin value reduced to 6.5 g/dl. Five four-week-old SD male rats as the control group were fed iron-containing food 1.
The weight gain in each group is the mean±standard deviation value of the five rats in the group.

[3] = Solubility of ferrichrysin in water compared with other iron compounds; conditions: for Precipitate: 0.1 g in 1 ml, 37° C., 90 min, centrifuged, visual
Method: The solubility of ferrichrysin was compared with the solubilities of other iron compounds. Water-soluble heme iron, ferric citrate and ferrichrysin which were used in Example 1 were used as iron compounds. 0.1 g of each of these iron compounds was dissolved in 1 ml of each buffer having a pH of 2 or 7, and then the solutions were incubated at 37° C. for 90 min. A glycine/hydrochloric acid buffer was used as the pH 2 buffer, and a phosphate buffer was used as the pH 7 buffer. The concentration of buffer agent(s) in each buffer was adjusted to 0.1 mol/l. After being incubated, each buffer was centrifuged to visually confirm the presence or absence of precipitate. Further, the iron concentration in the supernatant of each buffer was measured by atomic absorption.

[4] = system: SD male rats having iron deficiency anemia; test: Measurement of iron concentration in the liver; type: in vivo, rat; conditions: 3 weeks free feeding, food iron content 35 ppm; mean±SD of five rats
Method: Rats of the control group were fed food 1 (ferric citrate) from the beginning, i.e. through to the end. At the end of the experiment, livers were removed after perfusion of saline into the portal vein to exclude the blood; they were weighed and freeze-dried. The dried liver was subsequently incinerated and subjected to atomic absorption, so as to measure the iron concentration in the liver. Further, the water content of the liver was calculated, and the concentration of iron stored in the liver of the body was determined based on the iron concentration in the dried liver and the water content of the liver.

[5] = system: SD male rats having iron deficiency anemia; conditions: rat, in vivo; remark: listed apart in the source
Excerpt: Five four-week-old SD male rats as the control group were fed iron-containing food 1.
The fifteen rats having iron deficiency anemia were subsequently divided into three groups, and were freely fed iron-containing foods 1, 2 and 3, respectively, for 3 weeks. As the iron source, iron-containing food 1 contains ferric citrate; iron-containing food 2 contains water-soluble heme iron; and iron-containing food 3 contains ferrichrysin.
Measurements were made by a usual method of the concentrations of protein, ALT (alanine aminotransferase), AST (aspartate aminotransferase) and creatinine in the serums of the groups of rats which were fed iron-containing food 1 (ferric citrate), food 2 (heme iron) and food 3 (ferrichrysin) after the development of iron deficiency anemia, as well as the rats in the control group which were fed food 1 (ferric citrate) from the beginning.

[6] = Thermal and pH stabilities of ferrichrysin (absorbance at 430 nm before/after sterilization); type: physicochemical; conditions: 0.25 mg/ml; for Absorbance at 430 nm after sterilization: 20 min, 120° C., 200 kPa
Method: Ferrichrysin is known to show an absorption maximum at 430 nm. Ferrichrysin was tested for pH and thermal stabilities utilizing this property.
Ferrichrysin prepared from a rice koji extract in the manner as described above was dissolved in ultrapure water to a concentration of 2.5 mg/ml. The resulting solution was subsequently diluted to give a ferrichrysin concentration of 0.25 mg/ml using each of the following buffers. A glycine-hydrochloric acid buffer was used for a pH 2 or pH 3 buffer; a acetate buffer was used for a pH 4 or pH 5 buffer; a phosphate buffer was used for a pH 6 or pH 7 buffer; a tris-hydrochloric acid buffer was used for a pH 8 buffer; and a glycine-sodium hydroxide buffer was used for a pH 9 or pH 10 buffer.
Each ferrichrysin solution was placed in a screw-cap test tube, and then the test tube was sealed. The solution was subsequently sterilized by a process of steaming under pressure for 20 min at a temperature of 120° C. and a pressure of 200 kPa. The absorbance of each solution at 430 nm was measured prior to and after the sterilization.

[7] = system: SD male rats having iron deficiency anemia; test: Measurement of serum iron concentration; type: in vivo, rat; conditions: 3 weeks free feeding, food iron content 35 ppm; mean±SD of five rats
Method: Serum was prepared from the blood wholly exsanguinated from the rats of each group after the rats had been given their iron-containing food, so as to measure iron concentrations in the serums by a usual method.

[8] = for Proportion of the iron concentration after the reaction to the initial iron concentration (1 mg/ml): tannic acid, 37° C., 3 hr, filtrate, cut-off 10000
Method: (§1) Ferrichrysin was tested for its reactivity with tannic acid and phytic acid, the typical iron uptake inhibitor, so as to compare its reactivity with that of other iron compounds with these iron uptake inhibitor.
(§2) A 0.6% tannic acid solution and a 0.6% phytic acid solution were also prepared. The pH of each of these solutions was adjusted with hydrochloric acid or sodium hydroxide to 2.0, 4.0, 6.0 or 8.0.
(§3) The iron-compound solutions were mixed with each of the tannic acid and phytic acid solutions at a volume ratio of 1:9, and then the mixtures were incubated at 37° C. for 3 hr, so as to react the iron compounds with each of these iron uptake inhibitor. The resulting solutions were centrifuged at 15000 rpm for 5 min, and then the supernatant of each solution was ultrafiltrated using membranes having a molecular weight cut-off of 10000. The iron concentration in each filtrate was measured by atomic absorption.

[9] = for Proportion of the iron concentration after the reaction to the initial iron concentration (1 mg/ml): phytic acid, 37° C., 3 hr, filtrate, cut-off 10000
Method: as §1, §2, §3

CC(=O)N([O-])CCCC1NC(=O)CNC(=O)C(CO)NC(=O)C(CO)NC(=O)C(CCCN([O-])C(C)=O)NC(=O)C(CCCN([O-])C(C)=O)NC1=O.[Fe+3] (stereo not drawn) [Ferrichrysin, ferrichrysin] (cyclo(G[ξOrn(N(OH)Ac)][ξOrn(N(OH)Ac)][ξOrn(N(OH)Ac)]SS); configuration not given here)
Hemoglobin concentration in the blood, after feeding iron-containing food ([1]; 3 weeks free feeding, food iron content 35 ppm): 14.3 ± 0.3 g/dL
Hemoglobin concentration in the blood, before feeding iron-containing food ([1]; baseline after 35 days iron-deficient food): 6.4 ± 0.9 g/dL
Average food intake [2]: 366.3 g/3 weeks
Body weight gain [2]: 70.1 ± 8.3 g/3 weeks
Water solubility, in words [3]: very high water solubility
Precipitate ([3]; pH 2.0): No
Precipitate ([3]; pH 7.0): No
Iron concentration in the liver [4]: 39.3 ± 7.6 ppm
ALT [5]: 17.7 ± 2.3^a Karmen
AST [5]: 72.3 ± 3.2^b Karmen
Creatinine [5]: 0.63 ± 0.06 mg/dL
Serum protein [5]: 67.6 ± 4.1 mg/mL
Side effects on the body (liver and kidney function), in words [5]: no harmful side effects
Absorbance at 430 nm before sterilization ([6]; pH 2.0): 0.709
Absorbance at 430 nm after sterilization ([6]; pH 2.0): 0.366
Absorbance at 430 nm before sterilization ([6]; pH 3.0): 0.742
Absorbance at 430 nm after sterilization ([6]; pH 3.0): 0.721
Absorbance at 430 nm before sterilization ([6]; pH 4.0): 0.738
Absorbance at 430 nm after sterilization ([6]; pH 4.0): 0.743
Absorbance at 430 nm before sterilization ([6]; pH 5.0): 0.732
Absorbance at 430 nm after sterilization ([6]; pH 5.0): 0.748
Absorbance at 430 nm before sterilization ([6]; pH 6.0): 0.743
Absorbance at 430 nm after sterilization ([6]; pH 6.0): 0.746
Absorbance at 430 nm before sterilization ([6]; pH 7.0): 0.764
Absorbance at 430 nm after sterilization ([6]; pH 7.0): 0.774
Absorbance at 430 nm before sterilization ([6]; pH 8.0): 0.758
Absorbance at 430 nm after sterilization ([6]; pH 8.0): 0.747
Absorbance at 430 nm before sterilization ([6]; pH 9.0): 0.765
Absorbance at 430 nm after sterilization ([6]; pH 9.0): 0.767
Absorbance at 430 nm before sterilization ([6]; pH 10.0): 0.769
Absorbance at 430 nm after sterilization ([6]; pH 10.0): 0.772
Serum iron concentration after feeding iron-containing food [7]: 116.7 ± 24.1 µg/dL
Reactivity with iron-insolubilizing component, in words ([8]; pH 2): low reactivity
Proportion of the iron concentration after the reaction to the initial iron concentration (1 mg/ml) ([8]; pH 2.0): 80.5%
Proportion of the iron concentration after the reaction to the initial iron concentration (1 mg/ml) ([8]; pH 4.0): 71.8%
Proportion of the iron concentration after the reaction to the initial iron concentration (1 mg/ml) ([8]; pH 6.0): 76.1%
Proportion of the iron concentration after the reaction to the initial iron concentration (1 mg/ml) ([8]; pH 8.0): 81.9%
Reactivity with iron-insolubilizing component, in words ([9]; pH 2): low reactivity
Proportion of the iron concentration after the reaction to the initial iron concentration (1 mg/ml) ([9]; pH 2.0): 85.7%
Proportion of the iron concentration after the reaction to the initial iron concentration (1 mg/ml) ([9]; pH 4.0): 100.6%
Proportion of the iron concentration after the reaction to the initial iron concentration (1 mg/ml) ([9]; pH 6.0): 101.8%
Proportion of the iron concentration after the reaction to the initial iron concentration (1 mg/ml) ([9]; pH 8.0): 100.3%
